Data from US6635641B2 (Agouron Pharmaceuticals, Inc., priority 2000, dated 2003).
pIC50, pKi: −log10 of the molar value. Where a name gives a salt, the structure may show the parent alone. Read-outs that look alike come from different tables or passages of the source.

Assays:
[1] = target: T1, phosphorylated VEGF-R2Δ50 (FLVK-P) (Homo sapiens, UniProt P35968, DEL940-989/E990V); assay: VEGF-R2 coupled spectrophotometric assay, phosphorylated construct (FLVK-P); format: biochemical; details: for inhibition at 0.05 µM: @ 50 nM, read-out: FLVK-P percent inhibition
T1 construct: VEGF-R2Δ50 contains residues 806-939 and 990-1171; made in house; host or cells: baculovirus/insect cells
T1 sequence (P35968 with tags, fused parts or gaps DEL940-989/E990V limits assumed): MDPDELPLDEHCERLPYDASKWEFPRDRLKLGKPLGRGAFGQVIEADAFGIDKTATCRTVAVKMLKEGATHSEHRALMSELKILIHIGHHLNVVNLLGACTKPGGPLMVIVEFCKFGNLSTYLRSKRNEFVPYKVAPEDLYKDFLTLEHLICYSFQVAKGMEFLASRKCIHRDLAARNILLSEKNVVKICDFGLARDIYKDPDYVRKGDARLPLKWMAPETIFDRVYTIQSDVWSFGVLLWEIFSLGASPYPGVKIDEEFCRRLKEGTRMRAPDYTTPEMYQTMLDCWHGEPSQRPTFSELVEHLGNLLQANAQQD
Method in brief: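 Baculovirus-expressed VEGF-R2Δ50 (residues 806-939/990-1171, E990V), optionally autophosphorylated; ADP formation coupled via PK/LDH to NADH oxidation at 340 nm, pH 7.5 Hepes. FLVK-P: 1 mM ATP, 5.1 mM poly(E4Y1), 25 mM MgCl2; FLVK: 3 mM ATP, 20 mM poly(E4Y1), 60 mM MgCl2, 2 mM MnCl2. Ki from activity over compound concentrations.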

[2] = system: lung cancer cells (line MV522); assay: Cancer cell proliferation (MV522) assay (MTT); format: cell-based; details: MV522
Experimental: The protocol for assessing cellular proliferation in cancer cells is similar to that used for assessments in HUVEC cells. Two thousand lung cancer cells (line MV522, acquired from American Tissue Cultural Collection) were seeded in growth media (RPMI1640 medium supplemented with 2 mM glutamine and 10% FBS). Cells are allowed to attach for 1 day prior to addition of test agents and/or vehicles. Cells are treated simultaneously with the same test agents used in the HUVEC assay. Cellular proliferation is quantified by MTT dye reduction assay 72 hours after exposure to test agents. The total length of the assay is 4 days vs. 5 for HUVEC cells because MV522 cells are not exposed to starvation medium.

[3] = target: T2, unphosphorylated VEGF-R2Δ50 (FLVK) (Homo sapiens, UniProt P35968, DEL940-989/E990V); assay: VEGF-R2 coupled spectrophotometric assay, unphosphorylated construct (FLVK); format: biochemical; details: for inhibition at 0.05 µM: @ 50 nM, read-out: FLVK percent inhibition;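 as to all read-outs here: Baculovirus-expressed cytosolic kinase domain, ADP formation linked via pyruvate kinase and lactate dehydrogenase to NADH oxidation, read as falling absorbance at 340 nm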
T2 construct: VEGF-R2Δ50 contains residues 806-939 and 990-1171; made in house; host or cells: baculovirus/insect cells
T2 sequence (P35968 with tags, fused parts or gaps DEL940-989/E990V limits assumed): as above

[4] = system: human umbilical vein endothelial cells (HUVEC); assay: HUVEC proliferation assay (VEGF-stimulated, MTT); format: cell-based; details: Homo sapiens, read-out: HUVEC IC50
Experimental: This assay determines the ability of a test compound to inhibit the growth factor-stimulated proliferation of human umbilical vein endothelial cells (“HUVEC”). HUVEC cells (passage 3-4, Clonetics, Corp.) were thawed into EGM2 culture medium (Clonetics Corp) in T75 flasks. Fresh EGM2 medium was added to the flasks 24 hours later. Four or five days later, cells were exposed to another culture medium (F12K medium supplemented with 10% fetal bovine serum (FBS), 60 μg/ml endothelial cell growth supplement (ECGS), and 0.1 mg/ml heparin). Exponentially-growing HUVEC cells were used in experiments thereafter. Ten to twelve thousand HUVEC cells were plated in 96-well dishes in 100 μl of rich, culture medium (described above). The cells were allowed to attach for 24 hours in this medium. The medium was then removed by aspiration and 105 μl of starvation media (F12K+1% FBS) was added to each well. After 24 hours, 15 μl of test agent dissolved in 1% DMSO in starvation medium or this vehicle alone was added into each treatment well; the final DMSO concentration was 0.1%. One hour later, 30 μl of VEGF (30 ng/ml) in starvation media was added to all wells except those containing untreated controls; the final VEGF concentration was 6 ng/ml. Cellular proliferation was quantified 72 hours later by MTT dye reduction, at which time cells were exposed for 4 hours MTT (Promega Corp.). Dye reduction was stopped by addition of a stop solution (Promega Corp.) and absorbance at 595 λ was determined on a 96-well spectrophotometer plate reader.

LCK tyrosine kinase = target: T3, LCK tyrosine kinase (Homo sapiens, UniProt P06239, C224D/P223M); assay: LCK spectrophotometric assay; format: biochemical; details: @ 1 μM; read-out: LCK-P percent inhibition;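 also: recombinant LCK kinase activity on poly(E4Y1), ADP formation coupled through PK/LDH to NADH oxidation, followed as absorbance loss at 340 nm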
T3 construct: starting from amino acid residue 223 to the end of the protein at residue 509; made in house; host or cells: insect cells
T3 sequence (P06239 223-509 P223M/C224D): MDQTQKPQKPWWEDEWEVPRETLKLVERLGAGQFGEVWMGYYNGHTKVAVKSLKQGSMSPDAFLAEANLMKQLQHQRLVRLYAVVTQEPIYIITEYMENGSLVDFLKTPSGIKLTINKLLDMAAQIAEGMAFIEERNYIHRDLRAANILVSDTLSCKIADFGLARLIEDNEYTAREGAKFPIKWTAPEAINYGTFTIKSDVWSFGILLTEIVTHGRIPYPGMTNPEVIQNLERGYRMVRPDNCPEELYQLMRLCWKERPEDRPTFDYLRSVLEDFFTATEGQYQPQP

Row | Compound | melting point | pIC50 [2] | pKi [1] | pIC50 ([4]; HUVEC) | also measured
1 | Cc1cc(NC(=O)c2cccc(OCc3cnc(NNC(=O)OC(C)(C)C)c4ccccc34)c2)ccc1C(C)C [Example P-1, N′-{4-[3-(4-isopropyl-3-methyl-phenylcarbamoyl)-phenoxymethyl]-isoquinolin-1-yl}-hydrazinecarboxylic acid tert-butyl ester] | 125 to 129 °C |  |  |  | inhibition at 0.05 µM [1]: 4%
2 | CC(=O)Oc1ccc(C(=O)Nc2cccc(OCc3cccnc3)c2)cc1C(C)(C)C [Example X-2, 4-Acetoxy-3-t-butyl-N-[3-(pyridin-3-ylmethoxy)phenyl]-benzamide] | 58 to 62 °C |  |  |  | pKi ([3]; unphosphorylated VEGF-R2 construct): 8.04
3 | COc1cc(NC(=O)c2cccc(CSc3nc(NC#N)n[nH]3)c2)cc(OC)c1OC [Example C-1, 3-[(5-Cyanoamino-2H-[1,2,4]triazol-3-yl)sulfanylmethyl]-N-(3,4,5-trimethoxyphenyl)benzamide] | > 165 °C (dec.) |  |  |  | 
4 | COc1cc(NC(=O)c2cccc(CSc3nc(NC(C)=O)n[nH]3)c2)cc(OC)c1OC [Example C-3, N-(3,4,5-Trimethoxyphenyl)-3-[(5-acetylamino-2H-[1,2,4]triazol-3-yl)sulfanylmethyl]benzamide] | 196 to 201 °C |  |  |  | 
5 | O=C(Nc1cccc(OCc2cccnc2)c1)N1CCCC1 [Example Y-1, 1-[3-(pyridin-3-ylmethoxy)phenylcarbamoyl]pyrrolidine] | 138 to 140 °C |  |  |  | inhibition at 0.05 µM [3]: 6%; pIC50 ([4]; VEGF-stimulated HUVEC proliferation): < 6.15
6 | Cc1cc(NC(=O)c2cccc(CCc3cccnc3)c2)ccc1C(C)C [Example U-2, N-(4-Isopropyl-3-methyl-phenyl)-3-(2-pyridin-3-yl-ethyl)-benzamide] | 143 to 144 °C | < 5.00 | 7.91 | 7.00 | 
7 | COC(=O)Nc1n[nH]c(SCc2cccc(C(=O)Nc3cc(OC)c(OC)c(OC)c3)c2)n1 [Example C-2, 3-[(5-(Methoxycarbonylamino)-2H-[1,2,4]triazol-3-yl)sulfanylmethyl]-N-(3,4,5-Trimethoxyphenyl)benzamide] | > 150 °C (dec.) |  |  |  | 
8 | O=C(Nc1cccc(OCc2cccnc2)c1)N1CCOCC1 (as salt: salt) [Example Y-2, 4-[3-(pyridin-3-ylmethoxy)phenylcarbamoyl]morpholine] | 58 to 62 °C |  |  |  | 
9 | COc1cc(NC(=O)c2cccc(CSc3ncnc4[nH]ncc34)c2)cc(C(F)(F)F)c1 [Example B-16, 3-[(1H-Pyrazolo[3,4-d]pyrimidin-4-yl)sulfanylmethyl]-N(3-trifluoromethyl-5-methoxyphenyl)-benzamide] |  | < 5.00 | 7.82 | 6.43 | inhibition at 1 µM (LCK tyrosine kinase): 9%
10 | COc1cc(NC(=O)c2cccc(CSc3cnccn3)c2)cc(OC)c1OC [Example A-1, N-(3,4,5-Trimethoxyphenyl)-3-[(pyrazin-2-yl)sulfanylmethyl]benzamide] | 112 to 119 °C |  | 6.11 |  | 

Now from value to compound, other results behind:

Row | melting point | pIC50 [2] | pKi [1] | Compound | pIC50 ([4]; HUVEC) | also measured
11 | 61 to 66 °C | 5.59 |  | CN1CCN(c2ccc(NC(=O)c3ccc(F)c(OCc4cccnc4)c3)cc2C(F)(F)F)CC1 [Example R-20] | 6.81 | inhibition at 0.05 µM [3]: 19%
12 | 133 to 135 °C |  | 5.98 | Cc1ccc2cc(NC(=O)c3cccc(CSc4cnccn4)c3)ccc2n1 [Example A-6, N-(2-Methylquinolin-6-yl)-3-[(pyrazin-2-yl)sulfanylmethyl]benzamide] |  | 
13 |  | 5.00 | 8.00 | O=C(Nc1cccc(OC(F)(F)F)c1)c1cccc(OCc2cncc3ccccc23)c1 [Example R-4, 3-(Isoquinolin-4-ylmethoxy)-N-(3-trifluoromethoxy-phenyl)-benzamide] | 7.06 | pKi [3]: 8.62; inhibition at 1 µM (LCK tyrosine kinase): 28%
14 | 99 to 101 °C | < 5.00 | 7.83 | Cc1ccc2cc(NC(=O)c3cccc(SCc4cc(-c5ccccc5)n[nH]4)c3)ccc2n1 [Example F-2] | 6.19 | 
15 | 78 to 81 °C |  |  | Cc1cc(NC(=O)c2cccc(OCc3ccc(N)nc3)c2)ccc1C(C)C [Example L-1, 3-(6-Aminopyridin-3-yl)methoxy-N-(4-Isopropyl-3-methyl-phenyl)-benzamide] |  | 
16 | 189 to 192 °C |  | 7.28 | Cc1ccc2cc(NC(=O)c3cccc(OCc4ccc(N)nc4)c3)ccc2n1 [Example M-1, 3-(6-Aminopyridin-3-yl)methoxy-N-(2-methyl-quinolin-6-yl)-benzamide] |  | 
17 | 76 to 78 °C |  |  | O=C(Nc1ccc(N2CCNCC2)c(C(F)(F)F)c1)c1ccc(F)c(OCc2cnc3ccccc3c2)c1 (as salt: hydrochloride) [Example R-17, 4-Fluoro-N-(4-piperazin-1-yl-3-trifluoromethyl-phenyl)-3-(quinolin-3-ylmethoxy)-benzamide] |  | 
18 | 125 to 131 °C |  |  | COc1cccc(/C=N/Nc2ncc(COc3cccc(C(=O)Nc4ccc(C(C)C)c(C)c4)c3)c3ccccc23)c1 [Example Q-1, N-(4-Isopropyl-3-methyl-phenyl)-3-{1-[N′-(3-methoxy-benzylidene)-hydrazino]-isoquinolin-4-ylmethoxy}-benzamide] | 6.52 to 7.00 | inhibition at 0.05 µM [1]: 17%
19 | 98 to 101 °C | < 5.00 |  | CC(=O)Nc1ccc(COc2cccc(C(=O)Nc3ccc(C(C)C)c(C)c3)c2)cn1 [Example N-2, 3-(6-Acetylaminopyridin-3-yl)methoxy-N-(4-Isopropyl-3-methyl-phenyl)-benzamide] | < 7.00 | inhibition at 0.05 µM [3]: 8%
20 | 81 to 84 °C | 5.25 |  | O=C(Nc1ccc(N2CCOCC2)c(C(F)(F)F)c1)c1ccc(F)c(OCc2cnc3ccccc3c2)c1 [Example R-16, 4-Fluoro-N-(4-morpholin-4-yl-3-trifluoromethyl-phenyl)-3-(quinolin-3-ylmethoxy)-benzamide] | 7.89 | pKi [3]: 8.64
21 | 102 to 105 °C |  | 5.79 | Cc1ccc2cc(NC(=O)c3cccc(SCc4cnccn4)c3)ccc2n1 [Example D-2, N-(2-Methylquinolin-6-yl)-3-[(pyrazin-2-yl)methylsulfanyl]benzamide] |  | 
22 | 236 to 240 °C (dec.) |  | 6.39 | O=C(Nc1ccc2ncccc2c1)c1cccc(CSc2ncnc3[nH]ncc23)c1 [Example B-3, N-(Quinolin-6-yl)-3-[(1H-pyrazolo[3,4-d]pyrimidin-4-yl)sulfanylmethyl]benzamide] |  | 
23 | 98 to 102 °C | < 5.00 | 8.75 | Cc1ccc2cc(NC(=O)c3cccc(CCc4cc(Nc5ccccc5)n[nH]4)c3)ccc2n1 [Example G-2, N-(2-Methylquinolin-6-yl)-3-[2-(5-phenylamino-2H-pyrazol-3-yl)ethyl]benzamide] | 6.92 | 
24 |  | < 5.00 | 7.92 | CC1(C)OC(C)(C)c2cc(NC(=O)c3cccc(OCc4cncc5ccccc45)c3)ccc21 [Example R-10, 3-(Isoquinolin-4-ylmethoxy)-N-(1,1,3,3-tetramethyl-1,3-dihydroisobenzofuran-5-yl)-benzamide] | 7.55 | pKi [3]: 8.16; inhibition at 1 µM (LCK tyrosine kinase): 23%
25 | 103 to 107 °C |  |  | O=C(Nc1ccc(N2CCNCC2)c(C(F)(F)F)c1)c1ccc(F)c(OCc2cncc3ccccc23)c1 (as salt: hydrochloride) [Example R-15, 4-Fluoro-N-(4-piperazin-1-yl-3-trifluoromethyl-phenyl)-3-(isoquinolin-4-ylmethoxy)-benzamide] |  | 
